Experimental data as given in ChEMBL document CHEMBL1201862, “PubChem BioAssay data set” (2004).
Activity calls are given as the source filed them.

Tests used:
Cytochrome P450 2C19 = Cytochrome P450 2C19 (Homo sapiens, UniProt P33261); test: Cytochrome panel assay with activity outcomes. Panel member name: p450-cyp2c19 Compounds with AC50 equal or less than 10 uM are considered active; format: functional
Cytochrome P450 1A2 = biological target: T1, Cytochrome P450 1A2 (Homo sapiens, UniProt P05177);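 further: PubChem cytochrome P450 panel assay, CYP1A2 panel member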
T1 sequence (P05177 whole entry): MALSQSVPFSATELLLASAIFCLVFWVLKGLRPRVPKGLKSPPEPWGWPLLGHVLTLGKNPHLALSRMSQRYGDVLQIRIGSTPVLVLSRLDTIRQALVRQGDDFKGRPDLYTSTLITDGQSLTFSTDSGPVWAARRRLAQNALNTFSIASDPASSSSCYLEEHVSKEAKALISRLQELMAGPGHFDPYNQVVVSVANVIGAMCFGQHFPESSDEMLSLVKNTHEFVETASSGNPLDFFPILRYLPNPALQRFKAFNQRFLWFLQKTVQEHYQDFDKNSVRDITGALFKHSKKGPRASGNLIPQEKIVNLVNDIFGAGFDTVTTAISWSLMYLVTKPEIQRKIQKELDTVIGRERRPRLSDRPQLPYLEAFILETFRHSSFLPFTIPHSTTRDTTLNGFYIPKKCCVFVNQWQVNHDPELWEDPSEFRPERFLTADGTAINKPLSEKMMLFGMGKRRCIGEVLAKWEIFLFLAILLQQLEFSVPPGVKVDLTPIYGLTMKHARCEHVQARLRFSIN

Cytochrome P450 2C9 = Cytochrome P450 2C9 (Homo sapiens, UniProt P11712)
Chain of Cytochrome P450 2C9 (P11712 whole entry): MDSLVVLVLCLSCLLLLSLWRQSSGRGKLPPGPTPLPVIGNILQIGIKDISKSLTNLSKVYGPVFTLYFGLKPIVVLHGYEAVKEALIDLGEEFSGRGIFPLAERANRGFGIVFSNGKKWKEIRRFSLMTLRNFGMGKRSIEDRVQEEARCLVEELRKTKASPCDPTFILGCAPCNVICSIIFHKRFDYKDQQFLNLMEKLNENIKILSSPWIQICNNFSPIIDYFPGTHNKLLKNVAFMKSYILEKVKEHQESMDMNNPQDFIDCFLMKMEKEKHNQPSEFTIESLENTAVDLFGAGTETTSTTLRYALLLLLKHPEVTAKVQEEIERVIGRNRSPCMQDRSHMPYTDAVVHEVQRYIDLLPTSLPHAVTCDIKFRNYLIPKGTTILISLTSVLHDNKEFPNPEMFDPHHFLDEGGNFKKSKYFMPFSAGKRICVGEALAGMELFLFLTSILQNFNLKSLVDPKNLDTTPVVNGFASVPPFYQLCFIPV

[1] = biological target: T2, Corticotropin-releasing factor receptor 2/Corticotropin-releasing factor-binding protein (Homo sapiens, UniProt P24387+Q13324); test: Dose Response confirmation of uHTS hits for small molecule antagonists of the CRF-binding protein and CRF-R2 receptor complex.; format: functional; conditions: read-out: IC50_Mean
T2 sequence (Q13324 whole entry): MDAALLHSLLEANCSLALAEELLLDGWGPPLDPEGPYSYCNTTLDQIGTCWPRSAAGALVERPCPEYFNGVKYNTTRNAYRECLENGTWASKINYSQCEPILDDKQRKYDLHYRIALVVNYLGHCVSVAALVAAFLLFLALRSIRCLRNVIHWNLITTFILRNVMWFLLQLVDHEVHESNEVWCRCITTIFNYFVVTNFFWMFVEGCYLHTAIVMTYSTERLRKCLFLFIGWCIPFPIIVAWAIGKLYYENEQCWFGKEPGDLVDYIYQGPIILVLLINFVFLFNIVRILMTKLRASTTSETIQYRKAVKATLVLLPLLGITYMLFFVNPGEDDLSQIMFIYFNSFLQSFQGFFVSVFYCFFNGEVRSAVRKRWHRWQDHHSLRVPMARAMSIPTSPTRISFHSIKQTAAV
T2 sequence (P24387 whole entry): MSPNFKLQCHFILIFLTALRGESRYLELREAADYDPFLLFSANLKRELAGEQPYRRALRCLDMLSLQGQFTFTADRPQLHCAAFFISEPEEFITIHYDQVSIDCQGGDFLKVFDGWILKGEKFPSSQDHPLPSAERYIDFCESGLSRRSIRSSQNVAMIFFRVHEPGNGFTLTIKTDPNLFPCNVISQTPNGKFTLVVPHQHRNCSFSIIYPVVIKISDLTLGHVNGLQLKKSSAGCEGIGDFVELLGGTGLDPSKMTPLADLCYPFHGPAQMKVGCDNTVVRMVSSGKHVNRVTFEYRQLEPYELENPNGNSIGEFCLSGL

[2] = biological target: T2, Corticotropin-releasing factor receptor 2/Corticotropin-releasing factor-binding protein; test: activators of CRF receptor 2 with binding protein – uHTS hits, confirmation (AID 602473); format: functional; conditions: read-out: EC50_Mean
[3] = blockers of CRF-binding protein–CRF-R2 complex – cell-based, uHTS hits, 384-well, dose response (AID 651639); format: functional, Homo sapiens; conditions: read-out: IC50_Mean
[4] = HIV-1 Vif–A3G interaction blockers – biochemical, TR-FRET, GST-Vif 1-94, biotin-A3G peptide, dose response retest, primary screen (AID 1117319); format: functional;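 further: TR-FRET signal of purified GST-Vif binding a biotinylated A3G peptide; inhibitors lower the FRET signal by blocking Vif and A3G binding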
Cytochrome P450 2D6 = Cytochrome P450 2D6 (Homo sapiens, UniProt P10635);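 further: CYP2D6 member of a cytochrome P450 panel assay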
Chain of Cytochrome P450 2D6 (P10635 whole entry): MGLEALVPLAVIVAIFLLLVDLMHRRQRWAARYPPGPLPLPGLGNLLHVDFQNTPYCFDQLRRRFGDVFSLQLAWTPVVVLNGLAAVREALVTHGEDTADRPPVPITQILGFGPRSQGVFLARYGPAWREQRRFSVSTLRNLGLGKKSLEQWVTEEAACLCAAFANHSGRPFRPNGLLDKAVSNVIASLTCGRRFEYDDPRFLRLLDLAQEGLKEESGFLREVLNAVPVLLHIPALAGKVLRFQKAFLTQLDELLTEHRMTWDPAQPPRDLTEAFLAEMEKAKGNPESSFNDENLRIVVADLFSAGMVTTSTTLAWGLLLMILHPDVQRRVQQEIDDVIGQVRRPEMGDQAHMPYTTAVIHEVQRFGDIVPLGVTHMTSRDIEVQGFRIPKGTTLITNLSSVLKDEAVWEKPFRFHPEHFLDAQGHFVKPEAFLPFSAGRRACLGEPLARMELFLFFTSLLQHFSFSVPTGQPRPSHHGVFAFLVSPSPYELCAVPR

[5] = general mammalian cell viability loss – inhibitor set, cherry-pick, set 2, cytotoxicity control for miR-122 modulator project, dose response (AID 720697); format: functional, cell-based
[6] = Luminescence Cell-Based Dose Retest to Confirm Inhibitors of Cancer Stem Cells. [Related pubchem assays (depositor defined):AID2717, AID2721]; format: functional; conditions: Homo sapiens
[7] = HEK-293T viability loss after treatment – luminescence, T-cell screen hits, cytotoxicity control for TCR NF-kB inhibitor project, dose response (AID 489026); format: functional, cell-based;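 further: cells exposed to compound about 14 hours before the viability readout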
[8] = biological target: T3, Heat shock factor protein 1 (Mus musculus, UniProt P38532); test: enhancement of HSF1-driven luciferase signal – cell-based, NIH3T3, luminescence, dose retest, confirmation (AID 435004); format: functional;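 further: stress induced by proteasome inhibitor MG132 added 30 min after compound; luciferase reporter driven by HSF1 response element in NIH3T3 cells; actives raise luminescence as potentiators of the MG132 stress response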
T3 sequence (P38532 whole entry): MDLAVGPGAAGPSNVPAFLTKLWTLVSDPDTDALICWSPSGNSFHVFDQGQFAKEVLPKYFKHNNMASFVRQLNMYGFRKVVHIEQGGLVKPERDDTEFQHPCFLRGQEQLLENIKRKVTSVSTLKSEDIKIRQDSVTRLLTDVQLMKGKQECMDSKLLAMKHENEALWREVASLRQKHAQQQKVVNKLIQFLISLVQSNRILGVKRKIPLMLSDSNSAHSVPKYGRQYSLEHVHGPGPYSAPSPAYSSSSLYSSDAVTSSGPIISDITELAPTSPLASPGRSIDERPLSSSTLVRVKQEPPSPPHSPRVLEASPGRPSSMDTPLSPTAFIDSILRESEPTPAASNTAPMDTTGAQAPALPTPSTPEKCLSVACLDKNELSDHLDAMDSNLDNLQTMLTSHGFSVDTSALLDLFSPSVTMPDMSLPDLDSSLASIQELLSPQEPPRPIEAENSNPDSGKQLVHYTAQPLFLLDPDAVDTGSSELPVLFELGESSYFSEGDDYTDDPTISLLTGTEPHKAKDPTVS

[9] = reduction of Shn3 3'UTR-driven luciferase in osteoblasts – cell-based, Clone20 osteoblasts, firefly luciferase, cherry-picked, dose response (AID 624132); format: functional;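 further: firefly luciferase luminescence from reporter carrying the Shn3 3'UTR in osteoblasts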
[10] = loss of viability in HepG2 cells – cell-based, CellTiter-Glo, cherry-picked, cytotoxicity control for Shn3 inhibitor project, dose response (AID 624134); format: functional
[11] = non-specific 3'UTR reporter inhibition in Clone20-Shn3RL – cell-based, Renilla luciferase, cherry-picked, counter-screen for Shn3 inhibitor project, dose response (AID 624133); format: functional

Chain of Cytochrome P450 2C19 (P33261 whole entry): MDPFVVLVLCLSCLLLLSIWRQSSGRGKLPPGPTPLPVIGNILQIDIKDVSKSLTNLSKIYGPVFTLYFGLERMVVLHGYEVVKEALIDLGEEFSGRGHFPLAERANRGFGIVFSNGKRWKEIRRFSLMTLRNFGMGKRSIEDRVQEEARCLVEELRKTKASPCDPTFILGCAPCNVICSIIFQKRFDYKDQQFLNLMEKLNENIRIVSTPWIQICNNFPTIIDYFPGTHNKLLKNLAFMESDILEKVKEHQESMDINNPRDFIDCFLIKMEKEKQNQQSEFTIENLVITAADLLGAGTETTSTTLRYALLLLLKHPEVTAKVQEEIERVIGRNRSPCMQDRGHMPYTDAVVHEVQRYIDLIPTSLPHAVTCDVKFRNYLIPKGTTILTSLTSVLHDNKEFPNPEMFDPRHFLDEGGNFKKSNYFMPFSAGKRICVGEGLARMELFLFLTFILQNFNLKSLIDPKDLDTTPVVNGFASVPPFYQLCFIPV

| Structure (SMILES) | IC50 [1] | EC50 [2] | IC50 [3] | IC50 [4] | also measured |
| --- | --- | --- | --- | --- | --- |
| O=C(c1sc2ccccc2c1Cl)N1CCN(c2ccc(F)cc2)CC1 | – | – | – | – | AC50 (Cytochrome P450 2C19): 0.0891 µM (inconclusive); AC50 (Cytochrome P450 1A2): 2.82 µM (inconclusive); AC50 (Cytochrome P450 2C9): inconclusive |
| COC(=O)c1cc(OC)c(OC)cc1NC(=O)c1ccco1 | 38.9 µM (active) | > 53 µM (inactive) | > 20 µM (inactive) | – | – |
| COc1ccc(/C=C/C(=O)Nc2c(C)nn(C)c2C)cc1COc1ccc(Br)cc1 | 16.1 µM (active) | > 53 µM (inactive) | > 20 µM (inactive) | – | – |
| CCCCNC(=O)Cc1coc2ccc3ccccc3c12 | – | – | – | – | AC50 (Cytochrome P450 2C9): inconclusive |
| Cc1noc(C)c1-c1nccc(NC2CC2)n1 | – | – | – | – | AC50 (Cytochrome P450 2D6): 31.6 µM (inconclusive); AC50 (Cytochrome P450 2C9): inconclusive |
| Cc1cc2n(n1)C(c1cn(-c3ccccc3)nc1C)Nc1c(C)cccc1-2 (centres undefined) | – | – | – | – | AC50 [5]: 0.562 µM (active) |
| NC(=O)CC(NC(=O)c1ccc(Br)cc1)c1ccc(N2CCCCCC2)c([N+](=O)[O-])c1 (centres undefined) | – | – | – | – | AC50 [6]: 15.4 µM (active); IC50 [7]: > 80 µM (inactive); EC50 [8]: 38.3 µM (active); AC50 [9]: 7.66 µM (active); AC50 [10]: > 70 µM (inactive); AC50 [11]: 26.6 µM (active) |
| c1ccc2c(c1)OCCOCCOCCOCCOc1ccccc1OCCOCCOCCO2 | 7.94 µM (active) | 15.4 µM (active) | > 20 µM (inactive) | – | – |
| CC(=O)Nc1c(O)nc(SCC(=O)Nc2ccc(C(C)=O)cc2)nc1O | – | – | – | > 100 µM (active) | – |

Now from value to compound, other results behind:

| IC50 [1] | EC50 [2] | IC50 [3] | IC50 [4] | Structure (SMILES) | also measured |
| --- | --- | --- | --- | --- | --- |
| – | – | – | > 100 µM (active) | CCN1C(=O)CS/C1=C(\C#N)S(=O)(=O)c1ccccc1 | – |
| 16.3 µM (active) | > 53 µM (inactive) | > 20 µM (inactive) | – | Cc1cc(C)c(C)c(S(=O)(=O)Nc2ccccc2C(=O)O)c1C | – |
| – | – | – | > 100 µM (active) | CCc1c(C)sc(NC(=O)c2cc(-c3ccco3)on2)c1C#N | – |
| – | – | – | > 100 µM (active) | CCOC(=O)CSc1nnc(-c2ccccc2NC(=O)c2ccccc2)o1 | – |
